Molecules are shown by their SMILES. Where two headings read alike, the source gives them in different places.

These results are taken from patent US20250092056A1, “URACIL DERIVATIVES HAVING VIRUS REPLICATION INHIBITORY ACTIVITY AND PHARMACEUTICAL COMPOSITION COMPRISING THE SAME” (Shionogi & Co., Ltd., priority 2022, published 2025).

For assay [1], the system named is SARS-CoV-2. In words: Cytopathic effect (CPE) suppression effect confirmation test using HEK293T/ACE2-TMPRSS2 cells. It counts as cell-based. The conditions noted are these: Severe acute respiratory syndrome coronavirus 2, HEK-293T.
For assay [2], the target named is Recombinant SARS-CoV-2 3CL Protease (Severe acute respiratory syndrome coronavirus 2 (2019-nCoV) (SARS-CoV-2), UniProt P0DTD1). In words: biochemical. It counts as biochemical. The conditions noted are these: 50% SARS-CoV-2 3CL protease inhibitory concentration; read-out: IC50.
[3] abbreviates: 72 h, read-out: EC50 (50% SARS-CoV-2 infected cell death inhibitory concentration), HEK293T/ACE2-TMPRSS2 cells, CPE suppression, CellTiter-Glo 2.0 after 3 days culture.
Setting [4] is: 50% SARS-CoV-2 infected cell death inhibitory concentration, HEK293T/ACE2-TMPRSS2 cells, read-out: EC50.

In the case of `N#CCn1c(N2CC(O)(c3ncccn3)C2)c(-c2ccc(F)c(Cl)c2)c(=O)n(-c2cncc(Cl)c2)c1=O` [Compound I-232], the EC50 in assay [1] (setting [3]) worked out at 6.46 nM. Also, in assay [2], the IC50 is 0.86 nM.
As to `N#CCn1c(N2CC(c3ncccn3)C2)c(-c2ccc(F)c(Cl)c2)c(=O)n(-c2cncc(Cl)c2)c1=O` [Compound I-233], the EC50 in assay [1] (setting [4]) was less than 100 nM. For the same molecule, the IC50 in assay [2] was less than 10 nM.
On to `N#CCn1c(N2CC(O)(c3ncc(F)cn3)C2)c(-c2ccc(F)c(Cl)c2)c(=O)n(-c2cncc(Cl)c2)c1=O` [Compound I-234], for which, in assay [1] (setting [3]), the EC50 came out at 6.6 nM. The IC50 in assay [2] was 1.2 nM.
For the molecule `N#CCn1c(N2CC[C@H](C(=O)N3CC(F)(F)C3)C2)c(-c2ccc(F)c(Cl)c2)c(=O)n(-c2cncc(Cl)c2)c1=O` [Compound I-235], in assay [1] (setting [4]), the EC50 was less than 100 nM. Besides, in assay [2], the IC50 was less than 10 nM.
For `N#CCn1c(N2CC[C@@H](C(=O)C3CC(F)(F)C3)C2)c(-c2ccc(F)c(Cl)c2)c(=O)n(-c2cncc(Cl)c2)c1=O` [Compound I-236], in that order: less than 100 nM and less than 10 nM.
For `N#CCn1c(N2CC(O)(c3cnccn3)C2)c(-c2ccc(F)c(Cl)c2)c(=O)n(-c2cncc(Cl)c2)c1=O` [Compound I-237], in that order: less than 100 nM and less than 10 nM.
For the molecule `N#CCn1c(N2CCCO2)c(-c2ccc(F)c(Cl)c2)c(=O)n(-c2cncc(Cl)c2)c1=O` [Compound I-242], the EC50 in assay [1] (setting [4]) was less than 100 nM. For the same molecule, in assay [2], the IC50 lay within 10 to 100 nM.
For `N#CCn1c(N2CCOC2=O)c(-c2ccc(F)c(Cl)c2)c(=O)n(-c2cncc(Cl)c2)c1=O` [Compound I-243], in that order: 100 to 1000 nM and greater than 100 nM.
For `CN1CCN(c2c(-c3ccc(F)c(Cl)c3)c(=O)n(-c3cncc(Cl)c3)c(=O)n2CC#N)C1=O` [Compound I-244], in that order: less than 100 nM and 10 to 100 nM.
The matching figures for `N#CCn1c(OC2CC(F)(F)C2)c(-c2ccc(F)c(Cl)c2)c(=O)n(-c2cncc(Cl)c2)c1=O` [Compound I-245]: less than 100 nM and 10 to 100 nM.
In the case of `N#CCn1c(Oc2cncc(Cl)c2)c(-c2ccc(F)c(Cl)c2)c(=O)n(-c2cncc(Cl)c2)c1=O` [Compound I-246], in assay [1] (setting [4]), the EC50 fell in the range of 100 to 1000 nM. Also, the IC50 in assay [2] was less than 10 nM.
For `N#CCn1c(N2CC3(C2)CC(F)(F)C3)c(-c2ccc(F)c(Cl)c2)c(=O)n(-c2cncc(C#N)c2)c1=O` [Compound I-247], in that order: less than 100 nM and less than 10 nM.
The matching figures for `Cc1cncc(-n2c(=O)c(-c3ccc(F)c(Cl)c3)c(C#CC3CC3)n(CC#N)c2=O)c1` [Compound I-248]: 100 to 1000 nM and less than 10 nM.
For the molecule `N#CCn1c(N2CC(CO)C2)c(-c2ccc(F)c(Cl)c2)c(=O)n(-c2cncc(Cl)c2)c1=O` [Compound I-249], in assay [1] (setting [3]), the EC50 amounted to 7.9 nM. Moreover, the IC50 in assay [2] amounted to 0.54 nM.
The matching figures for `N#CCn1c(N2CC(C(F)F)C2)c(-c2ccc(F)c(Cl)c2)c(=O)n(-c2cncc(Cl)c2)c1=O` [Compound I-250]: 3.31 nM and 0.54 nM.
For the molecule `N#CCn1c(N2CCC2)c(-c2ccc(F)c(Cl)c2)c(=O)n(-c2cncc(Cl)c2)c1=O` [Compound I-251], the EC50 in assay [1] (setting [4]) is less than 100 nM. Further, the IC50 in assay [2] was less than 10 nM.
The matching figures for `Cc1cnc(F)c(-n2c(=O)c(-c3ccc(F)c(Cl)c3)c(N3CC4(C3)CC(F)(F)C4)n(CC#N)c2=O)c1` [Compound I-255]: less than 100 nM and less than 10 nM.
For `N#CCn1c(N2CC(O)(c3nccs3)C2)c(-c2ccc(F)c(Cl)c2)c(=O)n(-c2cncc(Cl)c2)c1=O` [Compound I-256], in that order: less than 100 nM and less than 10 nM.
Turning to `N#CCn1c(N2CC(OC(F)(F)F)C2)c(-c2ccc(F)c(Cl)c2)c(=O)n(-c2cncc(Cl)c2)c1=O` [Compound I-257], the EC50 in assay [1] (setting [3]) worked out at 2.98 nM. For the same molecule, in assay [2], the IC50 was found to be 0.35 nM.
Consider `N#CCn1c(N2CC3(C2)CC(F)(F)C3)c(-c2cncc(Cl)c2)c(=O)n(-c2cncc(Cl)c2)c1=O` [Compound I-258], for which the EC50 in assay [1] (setting [4]) is less than 100 nM. In assay [2], the IC50 was less than 10 nM.
`N#CCn1c(N2CC3(C2)CC(O)(c2ccccc2)C3)c(-c2ccc(F)c(Cl)c2)c(=O)n(-c2cncc(Cl)c2)c1=O` [Compound I-259]: in assay [1] (setting [3]), the EC50 came to 5.44 nM. Besides, in assay [2], the IC50 stood at 0.45 nM.
Turning to `COc1cncc(-n2c(=O)c(-c3ccc(F)c(Cl)c3)c(N3CC4(C3)CC(F)(F)C4)n(CC#N)c2=O)n1` [Compound I-260], in assay [1] (setting [4]), the EC50 was less than 100 nM. In addition, the IC50 in assay [2] is less than 10 nM.
Consider `N#CCn1c(N2CC(O)(c3ncccn3)C2)c(-c2ccc(F)c(Cl)c2)c(=O)n(-c2cncc(C(F)(F)F)c2)c1=O` [Compound I-261], for which the EC50 in assay [1] (setting [3]) came to 34.5 nM. For the same molecule, in assay [2], the IC50 turned out to be 18 nM.
Consider `CC(=O)Nc1cccc(-c2c(N3CCC(F)(F)CC3)n(CC#N)c(=O)n(-c3cncc(Cl)c3)c2=O)c1` [Compound I-263], for which, in assay [1] (setting [4]), the EC50 lay within 1000 to 5000 nM. The IC50 in assay [2] was greater than 100 nM.
For `N#CCn1c(N2CC3(CCOC3)C2)c(C2=CCCCC2)c(=O)n(-c2cncc(Cl)c2)c1=O` [Compound I-264], in that order: less than 100 nM and less than 10 nM.
For `N#CCn1c(-c2ccc(C3CC3)cc2)c(N2CCCCC2)c(=O)n(-c2cncc(Cl)c2)c1=O` [Compound I-265], the EC50 in assay [1] (setting [4]) lay in the range of 100 to 1000 nM. In addition, in assay [2], the IC50 lay within 10 to 100 nM.
For `N#CCn1c(C2CCC(F)(F)CC2)c(-c2ccnc(C(F)(F)F)c2)c(=O)n(-c2cncc(Cl)c2)c1=O` [Compound I-266], in that order: 100 to 1000 nM and 10 to 100 nM.
Consider `Cc1ccc(-c2c(-c3ccc(F)c(Cl)c3)c(=O)n(-c3cncc(C)c3)c(=O)n2CC#N)cc1` [Compound I-270], for which the EC50 in assay [1] (setting [4]) was less than 100 nM. Further, in assay [2], the IC50 is less than 10 nM.
The matching figures for `COc1ccc(-c2c(-c3ccc(F)c(Cl)c3)c(=O)n(-c3cncc(C)c3)c(=O)n2CC#N)cc1` [Compound I-271]: less than 100 nM and less than 10 nM.
Turning to `Cc1cncc(-n2c(=O)c(-c3ccc(F)c(Cl)c3)c(-c3ccc(F)cc3)n(CC#N)c2=O)c1` [Compound I-272], in assay [1] (setting [4]), the EC50 was less than 100 nM. The IC50 in assay [2] is less than 10 nM.
For `Cc1cncc(-n2c(=O)c(-c3ccc(F)c(Cl)c3)c(-c3ccc(C(N)=O)cc3)n(CC#N)c2=O)c1` [Compound I-273], in that order: less than 100 nM and less than 10 nM.
For `Cc1cncc(-n2c(=O)c(-c3ccc(F)c(Cl)c3)c(-c3ccc(N(C)C)cc3)n(CC#N)c2=O)c1` [Compound I-274], in that order: less than 100 nM and less than 10 nM.
For `Cc1cncc(-n2c(=O)c(-c3ccc(F)c(Cl)c3)c(-c3ccc(S(N)(=O)=O)cc3)n(CC#N)c2=O)c1` [Compound I-275], in that order: 100 to 1000 nM and less than 10 nM.
For the molecule `Cc1cncc(-n2c(=O)c(-c3ccc(F)c(Cl)c3)c(NS(=O)(=O)c3ccccc3)n(CC#N)c2=O)c1` [Compound I-276], the EC50 in assay [1] (setting [4]) is less than 100 nM. For the same molecule, the IC50 in assay [2] was less than 10 nM.
With `Cc1cc(-n2c(=O)c(-c3ccc(F)c(Cl)c3)c(N3CC4(C3)CC(F)(F)C4)n(CC#N)c2=O)c[n+]([O-])c1` [Compound I-278], in assay [1] (setting [4]), the EC50 is 100 to 1000 nM. For the same molecule, the IC50 in assay [2] was less than 10 nM.
The matching figures for `Cc1cncc(-n2c(=O)c(-c3ccc(F)c(Cl)c3)c(-c3cn[nH]c3)n(CC#N)c2=O)c1` [Compound I-279]: less than 100 nM and less than 10 nM.
With `Cc1cncc(-n2c(=O)c(-c3ccc(F)c(Cl)c3)c(Oc3ccccc3)n(CC#N)c2=O)c1` [Compound I-280], the EC50 in assay [1] (setting [4]) is less than 100 nM. The 50% inhibitory concentration (IC50) in assay [2] was less than 10 nM.
For `N#CCn1cc(-c2ccc(F)c(Cl)c2)c(=O)n(-c2cncc(Cl)c2)c1=O` [Compound I-281], in that order: less than 100 nM and 10 to 100 nM.
On to `CCCCc1c(N2CC3(CCOC3)C2)n(CC#N)c(=O)n(-c2cncc(Cl)c2)c1=O` [Compound I-284], for which the EC50 in assay [1] (setting [4]) is less than 100 nM. Further, the IC50 in assay [2] fell in the range of 10 to 100 nM.
For `CCCCc1c(-c2ccc(F)cc2)n(CC#N)c(=O)n(-c2cncc(Cl)c2)c1=O` [Compound I-286], in that order: 100 to 1000 nM and 10 to 100 nM.
For `N#CCn1c(N2CC(F)(c3ncccn3)C2)c(-c2ccc(F)c(Cl)c2)c(=O)n(-c2cncc(Cl)c2)c1=O` [Compound I-287], in that order: less than 100 nM and less than 10 nM.
In the case of `CC(C)(O)C1(F)CN(c2c(-c3ccc(F)c(Cl)c3)c(=O)n(-c3cncc(Cl)c3)c(=O)n2CC#N)C1` [Compound I-289], in assay [1] (setting [4]), the EC50 is less than 100 nM. Further, in assay [2], the IC50 was less than 10 nM.
For `N#CCn1c(N2CC(F)(F)C2)c(-c2ccc(F)c(Cl)c2)c(=O)n(-c2cncc(Cl)c2)c1=O` [Compound I-290], in that order: less than 100 nM and less than 10 nM.
The matching figures for `Cc1cncc(-n2c(=O)c(-c3cc(F)c(F)c(F)c3)c(/C=C/C(C)(C)O)n(CC#N)c2=O)c1` [Compound I-291]: less than 100 nM and 10 to 100 nM.
The matching figures for `N#CCn1c(N2CC3(CCOCC3)C2)c(-c2ccc(F)c(Cl)c2)c(=O)n(-c2cncc(Cl)c2)c1=O` [Compound I-292]: less than 100 nM and less than 10 nM.
As to `N#CCn1c(N2CC(C(F)(F)F)C2)c(-c2ccc(F)c(Cl)c2)c(=O)n(-c2cncc(F)c2)c1=O` [Compound I-295], the EC50 in assay [1] (setting [4]) is less than 100 nM. Besides, the IC50 in assay [2] is less than 10 nM.
The matching figures for `CC1(O)CN(c2c(-c3ccc(F)c(Cl)c3)c(=O)n(-c3cncc(Cl)c3)c(=O)n2CC#N)C1` [Compound I-296]: less than 100 nM and less than 10 nM.
The matching figures for `Cc1cncc(-n2c(=O)c(-c3ccc(F)c(Cl)c3)c(C3=CC4(CCOCC4)C3)n(CC#N)c2=O)c1` [Compound I-297]: less than 100 nM and less than 10 nM.
